Results published in patent US20140066365A1, “USE OF CALIXARENES ASSOCIATED WITH AN ANTIBIOTIC IN THE TREATMENT OF BACTERIAL INFECTIONS” (priority 2011, published 2014).
Values after ≈ are worked out from the molar mass of the structure shown. Where two headings read alike, the source gives them in different places.

Key:
Type in all cases: cell-based
[1] = test system: EcR1: Penicillinase-Producing Escherichia coli without Associated Resistance; assay: Antibiogram, MIC by the VITEK 2 system; conditions: for CA-SFM Interpretation: EcR1, MIC against Cc CA-SFM 2011; for CLSI Interpretation: EcR1, MIC against Cc CLSI 2011; for EUCAST Interpretation: EcR1, MIC against Cc EUCAST 2011; for Results: EcR1, interpretation of the MIC, Table A1; for MIC: Escherichia coli
Description: (§1) 5.1 EcR1: Penicillinase-Producing Escherichia coli without Associated Resistance The bacterial and antibiogramidentification is carried out by the VITEK 2 system (bioMérieux) and by the disk diffusion technique.

[2] = test system: penicillinase-producing strain of Escherichia coli without associated resistance (EcR1); assay: MIC of the compounds used alone, microdilution in a liquid medium (CLSI); conditions: Escherichia coli, antibiotic alone (second value of cell), read-out: Initial MICs
Source text: (§2) The MICs of the antibiotics were previously defined for each strain, by the method of microdilution in a liquid medium (CLSI (Clinical and Laboratory Standards Institute), 2003).

[3] = test system: cephalosporinase-hyperproducing strain of Escherichia coli (EcR2); assay: as above; conditions: Escherichia coli, antibiotic alone (second value of cell), read-out: Initial MICs
Source text: as §2

[4] = test system: Pseudomonas aeruginosa strain PaR3; assay: as above; conditions: Pseudomonas aeruginosa, antibiotic alone (second value of cell), read-out: MIC
Source text: as §2

[5] = test system: Pseudomonas aeruginosa strain ATCC 27853 (wild type); assay: as above; conditions: Pseudomonas aeruginosa, ATCC27853; antibiotic alone (second value of cell); P. aeruginosa ATCC 27853; read-out: MIC
Source text: as §2

[6] = test system: mucoid strain of Pseudomonas aeruginosa PaR5; assay: as above; conditions: Pseudomonas aeruginosa, antibiotic alone (second value of cell), read-out: MIC
Source text: as §2

[7] = test system: Escherichia coli strain ATCC 25922 (wild type); assay: as above; conditions: Escherichia coli, ATCC25922; antibiotic alone (second value of cell); E. coli ATCC 25922; read-out: Initial MICs
Source text: as §2

[8] = test system: ESBL-producing strain of Escherichia coli, having an associated resistance to the aminoglycosides (EcR3); assay: as above; conditions: Escherichia coli, antibiotic alone (second value of cell), read-out: Initial MICs
Source text: as §2

[9] = test system: Escherichia coli, Staphylococcus aureus and Pseudomonas aeruginosa strains; assay: Chessboard technique, summary statements over all strains and combinations tested; conditions: strain not stated
Source text: 1.3. Procedure: Chessboard Technique
The same procedure is followed for the Cx1. […] Thus 64 ATB/Cx1 combinations are obtained.
The FIC (Fractional Inhibitory Concentration Index) value is defined by the following formula: […]
When FIC≦0.5, there is a synergistic effect between antibiotic A and antibiotic B.
When 0.5<FIC≦1, there is an additive effect between antibiotic A and antibiotic B.
When 1<FIC≦4, there is an indifferent effect between antibiotic A and antibiotic B.
When FIC>4, there is an antagonistic effect between antibiotic A and antibiotic B.
For each strain and each antibiotic/Cx1 combination, the experiments were repeated a minimum of 3 times.

[10] = test system: PaR5: Pseudomonas aeruginosa; assay: Antibiogram by the disk diffusion technique; conditions: for Diameter / Results / CA-SFM Interpretation / CLSI Interpretation / EUCAST Interpretation: PaR5; for Diameter / Results: Table I1; for Results: against Dmin-Dmax; for diameter in mm: disk diffusion inhibition diameter, strain PaR5; for CA-SFM Interpretation / CLSI Interpretation / EUCAST Interpretation: disk diffusion; for CA-SFM Interpretation: versus critical diameter CA-SFM 2011; for CLSI Interpretation: versus critical diameter CLSI 2011; for EUCAST Interpretation: versus critical diameter EUCAST 2011, for ** antibiotics the disk load differs and the EUCAST interpretation is not applicable
Description: (§3) The bacterial and antibiogramidentification is carried out by the VITEK 2 system (bioMérieux) and by the disk diffusion technique

[11] = test system: PaR3: Pseudomonas aeruginosa; assay: Antibiogram, MIC by the VITEK 2 system; conditions: for CA-SFM Interpretation: Cc CA-SFM 2011; for CLSI Interpretation: Cc CLSI 2011; for EUCAST Interpretation: Cc EUCAST 2011
Description: (§4) The bacterial and antibiogramidentification is carried out by the VITEK 2 system (bioMérieux)

[12] = test system: Pseudomonas aeruginosa strain PaR2; assay: microbe, parasite or virus in culture; conditions: Pseudomonas aeruginosa, antibiotic alone (second value of cell), read-out: MIC
Source text: as §2

[13] = test system: EcR2: Cephalosporinase-Hyperproducing Strain of Escherichia coli; assay: Antibiogram by the disk diffusion technique; conditions: for Results: EcR2, rows that print a diameter; for CA-SFM Interpretation / CLSI Interpretation / EUCAST Interpretation: from diameter; for CA-SFM Interpretation: CA-SFM 2011; for CLSI Interpretation: CLSI 2011; for EUCAST Interpretation: EUCAST 2011
Description: The bacterial and antibiogramidentification is carried out by the VITEK 1 system (bioMérieux) and by the disk diffusion technique

[14] = test system: PaR2: Pseudomonas aeruginosa; conditions: for CA-SFM Interpretation: Cd CA-SFM 2011; for CLSI Interpretation: Cd CLSI 2011; for EUCAST Interpretation: Cd EUCAST 2011; for Diameter: Table G1; for Results: Table G1, against Dmin-Dmax; for diameter in mm: Table G2
Description: as §3

[15] = test system: EcR1: Penicillinase-Producing Escherichia coli without Associated Resistance; assay: Antibiogram by the disk diffusion technique; conditions: Table A1
Description: as §1

[16] = test system: EcR3: ESBL-Producing Escherichia coli; assay: Antibiogram by the disk diffusion technique
Description: The bacterial and antibiogramidentification is carried out by the VITEK 2 system (bioMerieux) and by the disk diffusion technique

[17] = test system: SaR4: Meticillin-Resistant Staphylococcus aureus; assay: Antibiogram by the disk diffusion technique
Description: as §3

[18] = test system: SaR3: Meticillin-Resistant Staphylococcus aureus; assay: Antibiogram by the disk diffusion technique
Description: as §3

[19] = test system: SaR1: Meticillin-Resistant Staphylococcus aureus without Associated Resistance; assay: Antibiogram, MIC by the VITEK 2 system; conditions: SaR1
Description: as §4

[20] = test system: SaR1: Meticillin-Resistant Staphylococcus aureus without Associated Resistance; assay: Antibiogram, inhibition diameter (Table D1)
Description: as §4

[21] = EcR1, Table A2, read-out: MIC mg/L (diameter in mm)
[22] = EcR1, VITEK 2, Table A1, read-out: MIC
[23] = Pseudomonas aeruginosa, Table H2, read-out: MIC

SMILES: CC(C)(O/N=C(\C(=O)N[C@@H]1C(=O)N2C(C(=O)[O-])=C(C[n+]3ccccc3)CS[C@H]12)c1csc(N)n1)C(=O)O [Ceftazidime]
- CA-SFM Interpretation [1]: Susceptible
- CLSI Interpretation [1]: Susceptible
- EUCAST Interpretation [1]: Susceptible
- Results [1]: Susceptible
- MIC [1, 21]: ≤ 1 mg/L
- MIC [1, 22]: ≤ 1 mg/L
- MIC [2]: 0.25 µg/mL
- MIC [3]: 8 µg/mL
- MIC [4]: 16 µg/mL
- MIC [5]: 4 µg/mL
- MIC [6]: 8 µg/mL
- MIC [7]: 0.125 µg/mL
- MIC [8]: 1 µg/mL
- interaction between the antibiotic and Cx1 [9]: synergism
- Diameter [10]: 32 mm
- Results [10]: Susceptible
- diameter in mm [10]: 32 mm
- CA-SFM Interpretation [10]: Susceptible
- CLSI Interpretation [10]: Susceptible
- EUCAST Interpretation [10]: Susceptible
- CA-SFM Interpretation [11]: Susceptible
- CLSI Interpretation [11]: Susceptible
- EUCAST Interpretation [11]: Susceptible
- MIC [11, 23]: 4 µg/mL (≈ 7.32 µM)
- MIC ([11]; Table H1): 4 µg/mL (≈ 7.32 µM)
- Results ([11]; Table H1): Susceptible
- MIC [12]: 8 µg/mL (≈ 14.6 µM)
- Diameter ([13]; EcR2, disk diffusion, Table B1): 20
- Results ([13]; Table B1): Intermediate
- Diameter ([13]; EcR2, Table B2, diameters): 20 mm
- CA-SFM Interpretation ([13]; EcR2): Resistant
- CLSI Interpretation ([13]; EcR2): Intermediate
- EUCAST Interpretation ([13]; EcR2): Intermediate
- CA-SFM Interpretation [14]: Susceptible
- CLSI Interpretation [14]: Susceptible
- EUCAST Interpretation [14]: Susceptible
- Diameter [14]: 23 mm
- Results [14]: Susceptible
- diameter in mm [14]: 23 mm

SMILES: NC[C@H]1O[C@H](O[C@H]2[C@H](O)[C@@H](O[C@H]3O[C@H](CO)[C@@H](O)[C@H](N)[C@H]3O)[C@H](N)C[C@@H]2N)[C@H](N)C[C@@H]1O [Tobramycin]
- Diameter ([15]; EcR1, disk diffusion): 19 mm
- Results ([15]; EcR1, interpretation of the diameter against Dmin Dmax): Susceptible
- CA-SFM Interpretation ([16]; Cd CA-SFM 2011): Resistant
- CLSI Interpretation ([16]; Cd CLSI 2011): Resistant
- EUCAST Interpretation ([16]; Cd EUCAST 2011): Resistant
- Diameter ([16]; Table C1): 6 mm
- Results ([16]; Table C1, against Dmin Dmax): Resistant
- diameter in mm ([16]; Table C2): 6 mm
- CA-SFM Interpretation [1]: Susceptible
- CLSI Interpretation [1]: Susceptible
- EUCAST Interpretation [1]: Susceptible
- Results [1]: Susceptible
- MIC [1, 21]: ≤ 1 mg/L
- MIC [1, 22]: ≤ 1 mg/L
- MIC [2]: 0.25 µg/mL
- MIC [3]: 4 µg/mL
- MIC [4]: 64 µg/mL
- MIC [5]: 0.5 µg/mL
- MIC [6]: 1 µg/mL
- MIC [7]: 0.25 µg/mL
- MIC [8]: 4 µg/mL
- interaction between the antibiotic and Cx1 [9]: synergism
- Diameter [10]: 28 mm
- Results [10]: Susceptible
- diameter in mm [10]: 28 mm
- CA-SFM Interpretation [10]: Susceptible
- CLSI Interpretation [10]: Susceptible
- EUCAST Interpretation [10]: Susceptible
- Diameter ([17]; Table F1): 6
- Results ([17]; Table F1, rows with a diameter): Resistant
- Diameter ([17]; Table F2, diameters): 6 mm
- CA-SFM Interpretation ([17]; from diameter, CA-SFM 2011): Resistant
- CLSI Interpretation ([17]; from diameter, CLSI 2011): Resistant
- EUCAST Interpretation ([17]; from diameter, EUCAST 2011): Resistant
- CA-SFM Interpretation ([18]; Cd CA-SFM 2011): Resistant
- CLSI Interpretation ([18]; Cd CLSI 2011): Resistant
- EUCAST Interpretation ([18]; Cd EUCAST 2011): Resistant
- Diameter ([18]; Table E1): 6 mm
- Results ([18]; Table E1, against Dmin Dmax): Resistant
- diameter in mm ([18]; Table E2): 6 mm
- CA-SFM Interpretation [11]: Resistant
- CLSI Interpretation [11]: Resistant
- EUCAST Interpretation [11]: Resistant
- MIC [11, 23]: ≥ 16 µg/mL
- MIC ([11]; Table H1): ≧16
- Results ([11]; Table H1): Resistant
- CA-SFM Interpretation ([19]; Cc CA-SFM 2011): Susceptible
- CLSI Interpretation ([19]; Cc CLSI 2011): Susceptible
- EUCAST Interpretation ([19]; Cc EUCAST 2011): Susceptible
- Results ([19]; Table D1, from MIC): Susceptible
- MIC mg/L ([19]; Table D2): ≦1 mg/L
- MIC ([19]; Staphylococcus aureus, Table D1, read-out: MIC): ≤ 1 µg/mL
- MIC [12]: 1 µg/mL (≈ 2.14 µM)
- Diameter ([13]; EcR2, disk diffusion, Table B1): 10
- Results ([13]; Table B1): Resistant
- Diameter ([13]; EcR2, Table B2, diameters): 10 mm
- CA-SFM Interpretation ([13]; EcR2): Resistant
- CLSI Interpretation ([13]; EcR2): Resistant
- EUCAST Interpretation ([13]; EcR2): Resistant
- Diameter [20]: 22 mm
- Results ([20]; from diameter, against Dmin Dmax): Susceptible
- CA-SFM Interpretation [14]: Susceptible
- CLSI Interpretation [14]: Susceptible
- EUCAST Interpretation [14]: Susceptible
- Diameter [14]: 24 mm
- Results [14]: Susceptible
- diameter in mm [14]: 24 mm
